In PubChem BioAssay (NCI):
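Compound exposure: 48 hours, 5 concentrations, 96-well plates. GI50 marks 50% less growth. TGI: concentration producing complete growth inhibition.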

Key:
Assay in all cases: NCI tumour cell line growth inhibition, 48 h
CCRF-CEM leukemia = tested on: CCRF-CEM leukemia
OVCAR-8 ovarian = tested on: OVCAR-8 ovarian
NCI-H522 lung = tested on: NCI-H522 lung
BT-549 breast = tested on: BT-549 breast
HOP-92 NSCLC = tested on: HOP-92 NSCLC
SF-539 CNS = tested on: SF-539 CNS
T-47D breast = tested on: T-47D breast
HL-60(TB) leukemia = tested on: HL-60(TB) leukemia
SF-295 CNS = tested on: SF-295 CNS
OVCAR-3 ovarian = tested on: OVCAR-3 ovarian

| Structure (SMILES) | GI50 (CCRF-CEM leukemia) [nM] | TGI (CCRF-CEM leukemia) [nM] | GI50 (OVCAR-8 ovarian) [nM] | TGI (OVCAR-8 ovarian) [nM] | GI50 (NCI-H522 lung) [nM] | GI50 (BT-549 breast) [nM] | TGI (BT-549 breast) [nM] | GI50 (HOP-92 NSCLC) [nM] | TGI (HOP-92 NSCLC) [nM] | GI50 (SF-539 CNS) [nM] | TGI (SF-539 CNS) [nM] | TGI (T-47D breast) [nM] | GI50 (HL-60(TB) leukemia) [nM] | TGI (HL-60(TB) leukemia) [nM] | GI50 (SF-295 CNS) [nM] | TGI (SF-295 CNS) [nM] | GI50 (OVCAR-3 ovarian) [nM] | TGI (OVCAR-3 ovarian) [nM] | TGI (NCI-H522 lung) [nM] | GI50 (T-47D breast) [nM] |
| --- | --- | --- | --- | --- | --- | --- | --- | --- | --- | --- | --- | --- | --- | --- | --- | --- | --- | --- | --- | --- |
| CN(C)c1ccc2c(c1)OC(N)=C(C#N)C2c1ccc2c(c1)CCO2 (configuration not stated) | 216 | > 52600 | 390 | 39900 | < 23.9 | 38.5 | 12400 | 5690 | 74300 | 118 | 519 | 56400 | 93.9 | 491 | < 20.8 | 1950 | < 21.3 | 1880 | – | – |
| COc1ccc(C(=O)c2cc3c(N)c(C(=O)Nc4cccc5ccccc45)sc3nc2C)cc1 | 199 | > 50000 | 285 | > 50000 | 226 | 379 | > 50000 | 181 | > 13500 | 126 | – | > 50000 | 150 | 503 | 172 | > 50000 | 156 | > 50000 | > 50000 | 355 |
| C1CN(SSN2CCOCC2)CCO1 | 43900 | > 100000 | 52100 | > 100000 | 22200 | 30000 | > 100000 | 15700 | 89200 | 24300 | 80700 | > 100000 | 32200 | > 100000 | 32400 | > 100000 | 32300 | 89200 | 64800 | 45000 |
| O=c1nc2oc3ccc4ccccc4c3cc-2s1 | 989 | > 100000 | 29400 | > 100000 | 596 | 4350 | > 100000 | 1620 | > 57800 | 1580 | > 100000 | > 100000 | 1410 | > 100000 | 2960 | > 92700 | 457 | > 23700 | > 100000 | 3510 |
| CCCCN(CCCC)c1ccc(C(=N)c2ccc(N(CCCC)CCCC)cc2)cc1 | 557 | 2270 | 396 | 1370 | 232 | 1420 | 2890 | 235 | 1460 | 1490 | 2950 | 1390 | 479 | 1950 | 499 | 1790 | 283 | 946 | 727 | 353 |
